Results taken from patent publication US20070218456A1, “CELLULAR ASSAYS FOR SIGNALING RECEPTORS” (INVITROGEN CORPORATION, priority 2006, published 2007).
Values after ≈ are worked out from the molar mass of the structure shown.

Key:
adenylyl cyclase [1] = test: FACS forskolin response of T-REx-CRE-bla-CHO-K1 pool; assay type: cell-based, Chinese hamster; conditions: T-REx-CRE-bla-CHO-K1 selected pool
Text: (§1) The transfected and antibiotic selected T-REx™-CRE-bla-CHO-K1 and T-REx™-GPR23-CRE-bla-CHO-K1 clones were sorted for their responsiveness to forskolin. Forskolin activates adenylyl cyclase and results in increased intracellular cAMP concentrations which in turn lead to increased production of beta-lactamase from the CRE response element. Forskolin response of the T-REx™-CRE-bla-CHO-K1 and T-REx™-GPR23-CRE-bla-CHO-K1 pools were determine using FACS. […] In addition, there was an increase in the constitutively active cells in the human GPR23 containing cells as compared to the parental as indicated by the un-stimulated blue levels. The responsive clones were collected at one cell per well in 96 well tissue culture plates then expanded and tested for there responsiveness to LPA.

adenylyl cyclase [2] = test: FACS forskolin response of T-REx-GPR23-CRE-bla-CHO-K1 pools; assay type: cell-based, Chinese hamster
Text: as §1

[3] = tested on: T-REx™-GPR23-CRE-bla-CHO-K1 clone H6-E2; test: T-REx-GPR23-CRE-bla-CHO-K1 clone H6-E2 beta-lactamase reporter assay (induction); assay type: cell-based, Chinese hamster; conditions: Clone H6-E2; 1 μg/ml tetracycline, 16 hrs
Method: Six clones selected for further testing were expanded and retested for their inducible GPR23 specific activity. The clones were plated at 25,000 cells per well in a 96 well black walled clear bottom tissue culture assay plate. The plates were than placed at 37° C. 5% CO2 for 24 hrs to allow the cells to attach to the assay plate. The complete media was then removed from the plate and replaced with assay media (DMEM+0.1% BSA) containing 100 ng/ml pertussis toxin with or without 1 μg/ml tetracycline. The plates were placed at 37° C. 5% CO2 for 16 hrs to allow the induced expression of the GPR23 receptor. The cells were then loaded with LiveBLAzer™-FRET B/G substrate (2 μM) containing solution D for 2 hrs. To determine the optimal cell density for this assay the cells were plated at 2,500, 5,000, 10,000, and 20,000 cells per well in a 384 well black walled clear bottom tissue culture assay plate in complete media (DMEM+10% FBS). The plates were than placed at 37° C. 5% CO2 for 24 hrs to allow the cells to attach to the assay plate. The complete media was then removed from the plate and replaced with assay media (DMEM+0.1% BSA) containing 100 ng/ml pertussis toxin and a four fold dilution series of doxycycline starting at 1 μg/ml. The plates were placed at 37° C./5% CO2 for 16 hrs to allow the induced expression of the GPR23 receptor. The cells were then loaded with LiveBLAzer™-FRET B/G substrate (2 μM) containing solution D for 2 hrs. The cells were plated at 20,000 cells per well in a 384 well black walled clear bottom tissue culture assay plate in complete media (DMEM+10% FBS). The plates were then placed at 37° C. 5% CO2 for 6 hrs to allow the cells to attach to the assay plate. The complete media was then removed from the plate and replaced with assay media (DMEM+0.1% BSA) containing 100 ng/ml pertussis toxin, 0%, 0.25%, 0.5%, or 1.0% DMSO, and a three fold dilution series of doxycycline starting at 1 μg/ml. The plates were placed at 37° C./5% CO2 for 16 hrs to allow the induced expression of the GPR23 receptor. The cells were then loaded with LiveBLAzer™-FRET B/G substrate (2 μM) containing solution D for 2 hrs. The cells were plated at 20,000 cells per well in a 384 well black walled clear bottom tissue culture assay plate in complete media (DMEM+10% FBS). The plates were than placed at 37° C. 5% CO2 for 6 hrs to allow the cells to attach to the assay plate. The complete media was then removed from the plate and replaced with assay media (DMEM+0.1% BSA) containing 100 ng/ml pertussis toxin, 0.5% DMSO, and a three fold dilution series of doxycycline starting at 1 μg/ml. The plates were placed at 37° C. 5% CO2 for 16, 20 or 24 hrs to allow the induced expression of the GPR23 receptor. The cells were then loaded with LiveBLAzer™-FRET B/G substrate (2 μM) containing solution D for 2 hrs. Dose response of T-REx-GPR23-CRE-bla CHO-K1 cells to Doxycycline. T-REx-GPR23-CRE-bla CHO-K1 cells were plated in Growth Media (+) and allowed to attach to the tissue culture plate for 6 hrs. They were then induced for GPR23 expression overnight with doxycycline for 16 hrs in Assay Media. Cells were then loaded with LiveBLAzer™-FRET B/G Substrate (CCF4-AM) for 2 hours. Fluorescence emission values at 460 nm and 530 nm were obtained using a standard florescence plate reader and the Blue/Green Emission Ratios were plotted against the indicated concentrations of doxycycline (FIG. 40).

[4] = tested on: T-REx™-G2A-NFAT-bla Freestyle™293F cells; test: T-REx G2A NFAT-bla Freestyle 293F beta-lactamase reporter assay (inducer dose response)
Method: (§2) In order to control the levels of G2A expression, G2A was placed under the control of an inducible promoter using Invitrogen's T-REx™ system. To again assess feasibility, pcDNA 5 G2A/TO was transiently transfected into CRE-bla Freestyle™ and NFAT-bla Freestyle™ cell lines stably expressing the T-REx™ Tet repressor plasmid (pcDNA6/TR; e.g., catalog# V1025-20, Invitrogen, Carlsbad, Calif.). The transfected cells were then treated with 10 ug/mL, 1 ug/mL, or 100 ng/mL tetracycline for 24 h to induce G2A expression. […] Stable pools of cells were created in both the TR CRE-bla and TR NFAT-bla Freestyle™293F backgrounds.
(§3) Stimulation Kinetics—Selected pools of both CRE-bla and NFAT-bla T-REx™ G2A Freestyle™ cells were stimulated with tetracycline for 3, 4, 5, or 24 h and loaded for 2 h with 1 μM LiveBLAzer™-FRET B/G substrate.
To improve the balance between tetracycline-induced signaling and cell death by testing shorter induction times, lower tetracycline concentrations and altered culture conditions were utilized to promote cell health. A 16 h tetracycline stimulation time was attempted on the pools from the first sort. Cells were plated at 10,000 cells/well 24 hours prior to assay in DMEM+10% dFBS and incubated at 37° C./5% CO2 until time of assay. The cells were stimulated for 16 hours (e.g., overnight) with a dilution series of the tetracycline. Following stimulation, the cells were loaded for 2 hours at room temperature in the dark with LiveBLAzer™-FRET B/G loading solution containing 1 μM substrate. This assay was done in Poly-D-Lysine coated plates.
Since G2A has no known agonists, doxycycline and tetracycline were compared as inducers of the assay. An antibiotic selected pool of cells were plated at 10,000 cells/well 24 hours prior to assay in DMEM+10% dFBS and incubated at 37° C./5% CO2 until time of assay. The cells were stimulated with a dilution series of each compound for 16 hours at 37° C./5% CO2 and loaded for 2 hours at room temperature in the dark with LiveBLAzer™-FRET B/G loading solution containing 1 μM substrate.
Cell Density/well—The influence of cell-plating density on assay performance was tested to find the density giving the best response and Z′ while maintaining the expected pharmacology. Cells were plated 24 hours prior to the assay at the densities indicated in FIG. 14 in DMEM+10% dFBS and incubated at 37° C./5% CO2 until the time of assay. The cells were stimulated for 16 hours at 37° C./5% CO2 with a dilution series of the doxycycline. After incubation, the cells were loaded for 2 hours at room temperature in the dark with LiveBLAzer™-FRET B/G loading solution containing 1 μM substrate.
DMSO Tolerance—Tests were performed related to assay performance as a function of DMSO concentration to determine the robustness of the assay to the range of DMSO challenge routinely encountered during high-throughput screening. Dose response curves were performed in the presence of 0%, 0.25%, 0.5%, or 1% DMSO. Cells were plated at 10,000 cells/well 24 hours prior to assay in DMEM+10% dFBS and incubated at 37° C./5% CO2 until time of assay. After incubation, DMSO was added to the wells to final concentrations of 0%, 0.25%, 0.5% and 1% DMSO. The cells were stimulated for 16 hours with a dilution series of the doxycycline. Following stimulation, the cells were loaded for 2 hours at room temperature in the dark with LiveBLAzer™-FRET B/G loading solution containing 1 μM substrate.
The substrate loading times were varied to find the time for an optimal assay performance. Cells were plated at 10,000 cells/well 24 hours prior to assay in DMEM+10% dFBS and incubated at 37° C./5% CO2 until time of assay. After incubation, DMSO was added to the wells to final concentration of 0.5%.

[5] = tested on: T-REx™ G2A CRE-bla Freestyle™ 293F cells; conditions: selected pool; 24 h tetracycline stimulation
Method: as §2, §3

## C=C[C@@]1(C)CC(=O)[C@]2(O)[C@@]3(C)[C@@H](O)CCC(C)(C)[C@@H]3[C@H](O)[C@H](OC(C)=O)[C@@]2(C)O1 [Forskolin]
Adenylyl cyclase [1]
  increase in the percentage of cells in the "Blue" (responding) gate, stimulated verses un-stimulated: ~10.7%
Adenylyl cyclase [2]; T-REx-GPR23-CRE-bla-CHO-K1 E1
  increase in the "Blue" gate, stimulated verses un-stimulated: ~20%
Adenylyl cyclase [2]; T-REx-GPR23-CRE-bla-CHO-K1 H6
  increase in the "Blue" gate, stimulated verses un-stimulated: ~21.1%

## CN(C)[C@@H]1C(O)=C(C(N)=O)C(=O)[C@@]2(O)C(O)=C3C(=O)c4c(O)cccc4[C@@](C)(O)[C@H]3C[C@@H]12 [Tetracycline]
[3]
  inducible response (induced versus uninduced): about 9.2 fold
[4]; Homo sapiens, FreeStyle 293-F, antibiotic selected pool, 10,000 cells/well, 16 h stimulation, 2 h loading
  EC50: 0.046 µg/mL (≈ 0.104 µM)
[4]; antibiotic selected pool, 10,000 cells/well, 16 h stimulation
  RR (Max): 3.1
[4]; selected pool, 24 h tetracycline stimulation
  cell death: substantial cell death
[5]
  cell death: substantial cell death
